Key:
[1] = tested on: colon adenocarcinoma line SW480; test: SW480 cell-based antiproliferative (MTT) assay; settings: Homo sapiens, SW480, 144 h, 1000 cells per well, 6 days post addition of test compound, read-out: Antiproliferative Activity SW480 (colon) Assay - IC50 Range
Description: (§1) The estrogen receptor negative epithelial breast carcinoma line (MDA-MB-435) was purchased from American Type Cell Culture Collection (ATCC; Rockville, Md.) and was grown in the medium recommended by ATCC. For analysis of the effect of the test compounds on growth of these cells, the cells were plated at 2000 cells per well in a 96-well tissue culture plate, and were incubated overnight at 37° C. with 5% CO2. The next day, the test compounds were dissolved in 100% dimethyl sulfoxide (DMSO) to yield a 10 mM stock solution. Each compound was diluted with sterile medium to 1 mM in a sufficient quantity to yield a final concentration of 120 μM. The compounds were then serially diluted in medium with 1.2% DMSO. One-fourth final volume of the diluted compounds was transferred to 96 well plates. Test compounds were assayed in duplicate. DMSO was added to a row of “control cells” such that the final concentration of DMSO in each well was 0.3%. Wells to which no cells were added served as the “blank.” Wells to which no inhibitor was added served as “no inhibitor control”. The plates were returned to the incubator, and 5 days post addition of test compound, were analyzed as described below.
(§2) 3-(4,5-Dimethylthiazole-2-yl)-2,5-diphenyl-2H-tetrazolium bromide (thiazolyl blue; MTT) was added to each well to yield a final concentration of 1 mg/mL. The plates were then incubated at 37° C. for 3 hours. The plates were centrifuged at 1000 rpm for 5 minutes prior to aspiration of the MTT-containing medium. The MTT-containing medium was then removed and 100 μL 100% ethanol was added to each well to dissolve the resulting formazan metabolite. To ensure complete dissolution, plates were shaken for 15 minutes at room temperature. Absorbencies were read in a microtiter plate reader (Molecular Dynamics) at a wavelength of 570 nm with a 650 nm reference. Percent inhibition was calculated by subtracting the absorbance of the blank (no cell) wells from all wells, then subtracting the division of the average absorbance of each test duplicate by the average of the controls from 1.00. Inhibitory concentrations (IC50) were determined from the linear regression of a plot of the logarithm of the concentration versus the percent inhibition.
The colon adenocarcinoma line SW480 and the colon carcinoma line HCT-116 also were obtained from the ATCC and were tested according to the same protocol provided above for MDA-MB435 cell based assay with the following modifications. Cell line SW480 was plated at 1000 cells per well and analyzed at 6 days post addition of the test compound. Cell line HCT-116 was plated at 1000 cells per well and analyzed at 4 days post addition of test compound.

[2] = biological target: T1, Recombinant active human Cyclin E/CDK2 complexes (Homo sapiens, UniProt P24941); test: CDK2 FlashPlate Assay (inhibition of Rb phosphorylation); format: biochemical; settings: Cyclin E/CDK2, Rb substrate, 33P-ATP, 25 minutes at room temperature; read-out: Inhibition of Cdk2 - IC50 Range
T1 construct: made in house; host or cells: insect cells
Description: To determine inhibition of CDK2 activity, purified recombinant retinoblastoma (Rb) protein was coated on 96 well FlashPlates (New England Nuclear, Boston, Mass.). Rb is a natural substrate for phosphorylation by CDK2 (Herwig and Strauss Eurr. J. Biochem., Vol. 246 (1997) pp. 581-601 and references therein). Recombinant active human Cyclin E/CDK2 complexes were partially purified from extracts of insect cells. The active Cyclin E/CDK2 was added to the Rb-coated FlashPlates along with ^33P-ATP and dilutions of test compounds. Plates were incubated for 25 minutes at room temperature with shaking, then washed and counted in the Topcount scintillation counter (Packard Instrument Co., Downers Grove, Ill.). Dilutions of test compounds were tested in duplicate in each assay. The percent inhibition of Rb phosphorylation, which is a measure of the inhibition of CDK2 activity, was determined according to the following formula: [formula] where “test compound” refers to the average counts per minute of the test duplicates, “nonspecific” refers to the average counts per minute when no Cyclin E/CDK2 was added, and “total” refers to the average counts per minute when no compound was added.

[3] = tested on: estrogen receptor negative epithelial breast carcinoma line (MDA-MB-435); test: MDA-MB-435 cell-based antiproliferative (MTT) assay; settings: Homo sapiens, MDA-MB-435, 120 h, 2000 cells per well, 5 days post addition of test compound, read-out: Antiproliferative Activity of MDA-MB435 (breast) Assay - IC50 Range
Description: as §1, §2

SMILES	IC50 [1] [µM]	IC50 [2] [µM]	IC50 [3] [µM]
Fc1ccccc1C1=Nc2c[nH]nc2Nc2ccc(I)cc21 [Compound A19, 5-(2-fluorophenyl)-7-iodo-pyrazolo[3,4][1,4]benzodiazepine]	–	1 to 9.99	–
Clc1ccc2c(c1)C(c1ccccc1Cl)=Nc1c[nH]nc1N2 [Compound A4, 5-(2-chlorophenyl)-7-chloro-pyrazolo[3,4][1,4]benzodiazepine]	–	10 to 30	–
Clc1ccc2c(c1)C(c1ccccc1)=Nc1c[nH]nc1N2 [Compound A6, 5-phenyl-7-chloro-pyrazolo[3,4][1,4]benzodiazepine]	–	1 to 9.99	–
Cc1[nH]nc2c1N=C(c1ccccc1F)c1cc(F)ccc1N2 [Compound B26, 3-methyl-5-(2-fluorophenyl)-7-fluoro-pyrazolo[3,4][1,4]benzodiazepine]	0.01 to 1	0.01 to 0.99	–
O=[N+]([O-])c1ccc2c(c1)C(c1ccccc1Cl)=Nc1c(n[nH]c1C(F)(F)F)N2 [Compound B12, 3-trifluoromethyl-5-(2-chlorophenyl)-7-nitro-pyrazolo[3,4][1,4]benzodiazepine]	–	0.01 to 0.99	1.1 to 9.99
Cc1[nH]nc2c1N=C(c1ccccc1F)c1cc(Cl)ccc1N2 [Compound B32, 3-methyl-5-(2-fluorophenyl)-7-chloro-pyrazolo[3,4][1,4]benzodiazepine]	1.1 to 9.99	0.01 to 0.99	–
O=[N+]([O-])c1ccc2c(c1)C(c1ccccc1Cl)=Nc1c(n[nH]c1-c1c[nH]cn1)N2 [Compound B14, 3-(4-imidazolyl)-5-(2-chlorophenyl)-7-nitro-pyrazolo[3,4][1,4]benzodiazepine]	–	0.01 to 0.99	1.1 to 9.99
Cc1[nH]nc2c1N=C(c1ccccc1)c1cc(I)ccc1N2 [Compound B33, 3-methyl-5-phenyl-7-iodo-pyrazolo[3,4][1,4]benzodiazepine]	10 to 30	1 to 9.99	–
Cc1[nH]nc2c1N=C(c1ccccc1)c1cc([N+](=O)[O-])ccc1N2 [Compound B27, 3-methyl-5-phenyl-7-nitro-pyrazolo[3,4][1,4]benzodiazepine]	0.01 to 1	0.01 to 0.99	–
COC(=O)c1ccc2c(c1)C(c1ccccc1)=Nc1c[nH]nc1N2 [Compound A18, 5-phenyl-7-carbomethoxy-pyrazolo[3,4][1,4]benzodiazepine]	–	1 to 9.99	–
CCOC(=O)c1ccc2c(c1)C(c1ccccc1F)=Nc1c[nH]nc1N2 [Compound A20, 5-(2-fluorophenyl)-7-carboethoxy-pyrazolo[3,4][1,4]benzodiazepine]	–	0.01 to 0.99	–
Cc1[nH]nc2c1N=C(c1ccccc1)c1ccccc1N2 [Compound B28, 3-methyl-5-phenyl-pyrazolo[3,4][1,4]benzodiazepine]	–	0.01 to 0.99	–
O=[N+]([O-])c1ccc2c(c1)C(c1ccccc1Cl)=Nc1c(n[nH]c1-c1cc[nH]n1)N2 [Compound B15]	–	0.01 to 0.99	10 to 30
CC(C)Cc1[nH]nc2c1N=C(c1ccccc1Cl)c1cc([N+](=O)[O-])ccc1N2 [Compound B11, 3-(2-methylpropyl)-5-(2-chlorophenyl)-7-nitro-pyrazolo[3,4][1,4]benzodiazepine]	–	1 to 9.99	–
O=[N+]([O-])c1ccc2c(c1)C(c1ccccc1C(F)(F)F)=Nc1c[nH]nc1N2 [Compound A17, 5-(2-trifluoromethylphenyl)-7-nitro-pyrazolo[3,4][1,4]benzodiazepine]	–	0.01 to 0.99	–
Fc1ccccc1C1=Nc2c[nH]nc2Nc2ccc(Cl)cc21 [Compound A7, 5-(2-fluorophenyl)-7-chloro-pyrazolo[3,4][1,4]benzodiazepine]	–	1 to 9.99	–
O=[N+]([O-])c1ccc2c(c1)C(c1ccccc1Cl)=Nc1c(n[nH]c1-c1nccs1)N2 [Compound B13, 3-(1-thiazolyl)-5-(2-chlorophenyl)-7-nitro-pyrazolo[3,4][1,4]benzodiazepine]	–	0.01 to 0.99	–
Fc1ccc2c(c1)C(c1ccccc1F)=Nc1c[nH]nc1N2 [Compound A11, 5-(2-fluorophenyl)-7-fluoro-pyrazolo[3,4][1,4]benzodiazepine]	10 to 30	1 to 9.99	–
CCC(C)c1[nH]nc2c1N=C(c1ccccc1Cl)c1cc([N+](=O)[O-])ccc1N2 (stereo not drawn) [Compound B17, 3-(1-methylpropyl)-5-(2-chlorophenyl)-7-nitro-pyrazolo[3,4][1,4]benzodiazepine]	–	0.01 to 0.99	–

The next lines start with the values.

IC50 [1] [µM]	IC50 [2] [µM]	IC50 [3] [µM]	SMILES
0.01 to 1	0.01 to 0.99	–	Cc1[nH]nc2c1N=C(c1ccccc1C(F)(F)F)c1cc([N+](=O)[O-])ccc1N2 [Compound D2]
–	1 to 9.99	–	Cc1ccc(-c2[nH]nc3c2N=C(c2ccccc2Cl)c2cc([N+](=O)[O-])ccc2N3)cc1 [Compound D24]
–	0.01 to 0.99	10 to 30	N#Cc1[nH]nc2c1N=C(c1ccccc1Cl)c1cc([N+](=O)[O-])ccc1N2 [Compound C18, 5-(2-chlorophenyl)-7-nitro-pyrazolo[3,4][1,4]benzodiazepine-3-carbonitrile]
–	1 to 9.99	–	CN(C)c1ccc(-c2[nH]nc3c2N=C(c2ccccc2Cl)c2cc([N+](=O)[O-])ccc2N3)cc1 [Compound D28]
0.01 to 1	0.01 to 0.99	–	Cc1[nH]nc2c1N=C(c1ccccc1F)c1cc(C(N)=O)ccc1N2 [Compound C19, 3-methyl-5-(2-fluorophenyl)-pyrazolo[3,4][1,4]benzodiazepine-7-carboxamide]
–	0.01 to 0.99	0.01 to 1	C=Cc1[nH]nc2c1N=C(c1ccccc1Cl)c1cc([N+](=O)[O-])ccc1N2 [Compound C17, 3-ethenyl-5-(2-chlorophenyl)-7-nitro-pyrazolo[3,4][1,4]benzodiazepine]
–	1 to 9.99	–	O=C(c1ccc2c(c1)C(c1ccccc1F)=Nc1c[nH]nc1N2)N(CCO)CCO [Compound C3, N,N-bis-(2-hydroxyethyl)-5-(2-fluorophenyl)-pyrazolo[3,4][1,4]benzodiazepine-7-carboxamide]
–	0.01 to 0.99	1.1 to 9.99	CC(C)c1[nH]nc2c1N=C(c1ccccc1Cl)c1cc(N)ccc1N2 [Compound C6, 3-(1-methylethyl)-5-(2-chlorophenyl)-7-amino-pyrazolo[3,4][1,4]benzodiazepine]
–	1 to 9.99	–	Cn1cccc1-c1[nH]nc2c1N=C(c1ccccc1Cl)c1cc([N+](=O)[O-])ccc1N2 [Compound D21]
–	1 to 9.99	–	CN(C)C(=O)c1[nH]nc2c1N=C(c1ccccc1Cl)c1cc([N+](=O)[O-])ccc1N2 [Compound C11, N,N-dimethyl-5-(2-chlorophenyl)-7-nitro-pyrazolo[3,4][1,4]benzodiazepine-3-carboxamide]
–	1 to 9.99	–	O=[N+]([O-])c1ccc2c(c1)C(c1ccccc1)=Nc1c(n[nH]c1-c1ncc[nH]1)N2 [Compound D34]
–	0.01 to 0.99	10 to 30	NC(=O)c1[nH]nc2c1N=C(c1ccccc1Cl)c1cc([N+](=O)[O-])ccc1N2 [Compound C10, 5-(2-chlorophenyl)-7-nitro-pyrazolo[3,4][1,4]benzodiazepine-3-carboxamide]
–	10 to 30	–	O=[N+]([O-])c1ccc2c(c1)C(c1ccccc1Cl)=Nc1c(n[nH]c1-c1ccccc1[N+](=O)[O-])N2 [Compound D39]
–	1 to 9.99	–	O=C(O)c1ccc2c(c1)C(c1ccccc1F)=Nc1c[nH]nc1N2 [Compound D22]
–	1 to 9.99	–	Cc1ccc(-c2[nH]nc3c2N=C(c2ccccc2Cl)c2cc([N+](=O)[O-])ccc2N3)s1 [Compound D26]
